Earlier results on 1 compound are cited in patent US20260272898A1 (Bayer Aktiengesellschaft, priority 2024, published 2026).

Structures are written as SMILES.

The conditions of this series: in vivo.

With `CCOc1ncc(C)c2c1[C@H](c1ccc(C#N)cc1OC)C(C(N)=O)=C(C)N2` [finerenone, (4S)-4-(4-cyano-2-methoxyphenyl)-5-ethoxy-2,8-dimethyl-1,4-dihydro-1,6-naphthyridine-3-carboxamide], the half-life result was “short”.
